What was measured:
[1] = molecular target: T1, B1R receptor of the rat (rB1R) (Rattus norvegicus, UniProt P97583); experiment: FLIPR Ca2+ assay on rB1R-transfected CHO K1 cells, antagonistic action; assay type: cell-based; settings: CHO-K1, 10 μM test substance; agonist Des-Arg9-bradykinin 100 nM; % of maximum achievable inhibition; read-out: rB1R [10 μM] % inhibition
T1 construct: host or cells: CHO K1 cells
T1 sequence (P97583 1-337): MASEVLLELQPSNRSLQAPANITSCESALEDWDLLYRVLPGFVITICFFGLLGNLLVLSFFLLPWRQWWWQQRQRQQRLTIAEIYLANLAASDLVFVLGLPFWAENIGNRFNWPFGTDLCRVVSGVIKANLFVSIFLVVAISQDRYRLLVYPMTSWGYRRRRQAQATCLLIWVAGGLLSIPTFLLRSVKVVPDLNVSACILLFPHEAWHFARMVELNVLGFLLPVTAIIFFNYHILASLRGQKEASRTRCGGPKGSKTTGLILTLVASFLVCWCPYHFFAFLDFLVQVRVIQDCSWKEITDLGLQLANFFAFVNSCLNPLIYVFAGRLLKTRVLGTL

[2] = molecular target: T2, human B1R receptor (hB1R) (Homo sapiens, UniProt P46663); experiment: FLIPR Ca2+ assay on hB1R-transfected CHO K1 cells, antagonistic action; assay type: cell-based; settings: CHO-K1, 10 μM test substance; agonist Lys-Des-Arg9-bradykinin 0.5 nM; % of maximum achievable inhibition; read-out: hB1R [10 μM] % inhibition
T2 construct: host or cells: CHO K1 cells
T2 sequence (P46663 1-353): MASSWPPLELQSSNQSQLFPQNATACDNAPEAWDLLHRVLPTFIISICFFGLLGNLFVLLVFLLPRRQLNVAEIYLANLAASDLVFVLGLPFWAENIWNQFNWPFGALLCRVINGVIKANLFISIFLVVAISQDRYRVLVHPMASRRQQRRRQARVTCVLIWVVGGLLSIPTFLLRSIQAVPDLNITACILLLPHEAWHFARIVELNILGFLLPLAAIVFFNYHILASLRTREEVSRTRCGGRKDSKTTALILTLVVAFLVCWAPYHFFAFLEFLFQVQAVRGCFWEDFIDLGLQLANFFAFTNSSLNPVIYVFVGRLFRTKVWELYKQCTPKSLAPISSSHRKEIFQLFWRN

| SMILES | inhibition at 10 µM [1] | inhibition at 10 µM [2] |
| --- | --- | --- |
| CN(CCC1CCC(Cc2ccccc2)(N(C)C)CC1)C(=O)CC(NS(=O)(=O)c1ccc2ccccc2c1)c1ccccc1 (stereo not drawn) [Compound 86, N-(2-(4-benzyl-4-(dimethylamino)cyclohexyl)ethyl)-N-methyl-3-(naphthalene-2-sulfonamido)-3-phenylpropanamide] | 99% | 101% |
| COc1cc(C)c(S(=O)(=O)N2CCCCC2COCC(=O)N2CCC(Cc3ccccc3)(N3CCN(C)CC3)CC2)c(C)c1 (stereo not drawn) [Compound 57, 1-(4-benzyl-4-(4-methylpiperazin-1-yl)piperidin-1-yl)-2-((1-(4-methoxy-2,6-dimethylphenylsulfonyl)piperidin-2-yl)methoxy)ethanone] | 100% | 100% |
| COc1cc(C)c(S(=O)(=O)N(CCOCC(=O)N2CCC(c3cccc(F)c3)(N3CCN(C)CC3)CC2)Cc2ccccc2)c(C)c1 [Compound 218, N-Benzyl-N-(2-(2-(4-(3-fluorophenyl)-4-(4-methylpiperazin-1-yl)piperidin-1-yl)-2-oxoethoxy)ethyl)-4-methoxy-2,6-dimethylbenzenesulfonamide] | 101% |  |
| O=C(COCC1CCCCN1S(=O)(=O)c1c(Cl)cc(Cl)cc1Cl)NC1CCC(c2ccccc2)(N2CCCC2)CC1 (stereo not drawn) [Compound 142, N-(4-phenyl-4-(pyrrolidin-1-yl)cyclohexyl)-2-((1-(2,4,6-trichlorophenylsulfonyl)piperidin-2-yl)methoxy)acetamide] | 113% | 92% |
| COc1cc(C)c(S(=O)(=O)N2CCCCC2COCC(=O)N2CCC(c3ccccc3)(N3CCN(C)CC3)CC2)c(C)c1 (stereo not drawn) [Compound 49, 2-((1-(4-methoxy-2,6-dimethylphenylsulfonyl)piperidin-2-yl)methoxy)-1-(4-(4-methylpiperazin-1-yl)-4-phenylpiperidin-1-yl)ethanone] | 100% | 103% |
| COc1cc(C)c(S(=O)(=O)N(C)CCOCC(=O)N2CCC(c3ccncc3)(N(C)C)CC2)c(C)c1 [Compound 206, N-(2-(2-(4-(dimethylamino)-4-(pyridin-4-yl)piperidin-1-yl)-2-oxoethoxy)ethyl)-4-methoxy-N,2,6-trimethylbenzenesulfonamide] | 99% | 100% |
| COc1cc(C)c(S(=O)(=O)N(C)CCOCC(=O)N2CCC(c3cccnc3)(N(C)C)CC2)c(C)c1 [Compound 208, N-(2-(2-(4-(Dimethylamino)-4-(pyridin-3-yl)piperidin-1-yl)-2-oxoethoxy)ethyl)-4-methoxy-N,2,6-trimethylbenzenesulfonamide] | 102% | 100% |
| Cc1cc(S(=O)(=O)N2CCCCC2CCC(=O)N(C)CCCC2CCC(Cc3ccccc3)(N3CCCC3)CC2)c(C)cc1Cl (stereo not drawn) [Compound 124, N-(3-(4-benzyl-4-(pyrrolidin-1-yl)cyclohexyl)propyl)-3-(1-(4-chloro-2,5-dimethylphenylsulfonyl)piperidin-2-yl)-N-methylpropanamide] | 58% | 98% |
| CN1CCN(C2(c3cccc(F)c3)CCN(C(=O)CC(NS(=O)(=O)c3ccc4ccccc4c3)c3ccccc3)CC2)CC1 (stereo not drawn) [Compound 120, N-(3-(4-(3-fluorophenyl)-4-(4-methylpiperazin-1-yl)piperidin-1-yl)-3-oxo-1-phenylpropyl)naphthalene-2-sulfonamide] | 67% | 97% |
| CN1CCN(C2(Cc3ccccc3)CCN(C(=O)CC(NS(=O)(=O)c3ccc4ccccc4c3)c3ccccc3)CC2)CC1 (stereo not drawn) [Compound 118, N-(3-(4-benzyl-4-(4-methylpiperazin-1-yl)piperidin-1-yl)-3-oxo-1-phenylpropyl)naphthalene-2-sulfonamide] | 69% | 101% |
| COc1cc(C)c(S(=O)(=O)N(CCOCC(=O)N2CCC(c3cccc(F)c3)(N3CCN(C)CC3)CC2)c2ccccc2)c(C)c1 [Compound 219, N-(2-(2-(4-(3-Fluorophenyl)-4-(4-methylpiperazin-1-yl)piperidin-1-yl)-2-oxoethoxy)ethyl)-4-methoxy-2,6-dimethyl-N-phenylbenzenesulfonamide] | 61% |  |
| CN(CCCC1CCC(c2ccccc2)(N2CCCC2)CC1)C(=O)COCC1CCc2ccccc2N1S(=O)(=O)c1ccc(Cl)c(Cl)c1 (stereo not drawn) [Compound 133, 2-((1-(3,4-dichlorophenylsulfonyl)-1,2,3,4-tetrahydroquinolin-2-yl)methoxy)-N-methyl-N-(3-(4-phenyl-4-(pyrrolidin-1-yl)cyclohexyl)propyl)acetamide] | 42% | 92% |
| CN(CCC1CCC(c2ccccc2)(N(C)C)CC1)C(=O)COCC1CCc2ccccc2N1S(=O)(=O)c1ccc(Cl)c(Cl)c1 (stereo not drawn) [Compound 111, 2-((1-(3,4-dichlorophenylsulfonyl)-1,2,3,4-tetrahydroquinolin-2-yl)methoxy)-N-(2-(4-(dimethylamino)-4-phenylcyclohexyl)ethyl)-N-methylacetamide] | 78% | 80% |
| Cc1cc(S(=O)(=O)N2CCCCC2CCC(=O)N2CCC(c3ccccc3)(N3CCN(c4ccncc4)CC3)CC2)c(C)cc1Cl (stereo not drawn) [Compound 99, 3-(1-(4-chloro-2,5-dimethylphenylsulfonyl)piperidin-2-yl)-1-(4-phenyl-4-(4-(pyridin-4-yl)piperazin-1-yl)piperidin-1-yl)propan-1-one] | 90% | 100% |
| COc1cc(C)c(S(=O)(=O)N2CCCC2COCC(=O)NCC2CCC(c3ccccc3)(N3CCOCC3)CC2)c(C)c1 (stereo not drawn) [Compound 152, 2-((1-(4-methoxy-2,6-dimethylphenylsulfonyl)pyrrolidin-2-yl)methoxy)-N-((4-morpholino-4-phenylcyclohexyl)methyl)acetamide] | 102% | 84% |
| CN(CCC1CCC(Cc2ccccc2)(N2CCCC2)CC1)C(=O)CC1CCCCN1S(=O)(=O)c1cccc(C(F)(F)F)c1 (stereo not drawn) [Compound 121, N-(2-(4-benzyl-4-(pyrrolidin-1-yl)cyclohexyl)ethyl)-N-methyl-2-(1-(3-(trifluoromethyl)phenylsulfonyl)piperidin-2-yl)acetamide] | 66% | 102% |
| Cc1cc(S(=O)(=O)N2CCCCC2CCC(=O)N2CCC(Cc3ccccc3)(N(C)C)CC2)c(C)cc1Cl (stereo not drawn) [Compound 80, 1-(4-benzyl-4-(dimethylamino)piperidin-1-yl)-3-(1-(4-chloro-2,5-dimethylphenylsulfonyl)piperidin-2-yl)propan-1-one] | 99% | 86% |
| CN(CC1CCC(CCc2ccccc2)(N2CCCC2)CC1)C(=O)CC(NS(=O)(=O)c1ccc2ccccc2c1)c1ccccc1 (stereo not drawn) [Compound 89, N-methyl-3-(naphthalene-2-sulfonamido)-N-((4-phenethyl-4-(pyrrolidin-1-yl)cyclohexyl)methyl)-3-phenylpropanamide] | 98% | 92% |
| Cc1cc(S(=O)(=O)N2CCCCC2CCC(=O)N(C)CCC2CCC(c3ccccc3)(N3CCCC3)CC2)c(C)cc1Cl (stereo not drawn) [Compound 139, 3-(1-(4-chloro-2,5-dimethylphenylsulfonyl)piperidin-2-yl)-N-methyl-N-(2-(4-phenyl-4-(pyrrolidin-1-yl)cyclohexyl)ethyl)propanamide] | 24% | 105% |
| CN1CCN(C2(Cc3ccccc3)CCN(C(=O)COCC3CCc4ccccc4N3S(=O)(=O)c3ccc(Cl)c(Cl)c3)CC2)CC1 (stereo not drawn) [Compound 108, 1-(4-benzyl-4-(4-methylpiperazin-1-yl)piperidin-1-yl)-2-((1-(3,4-dichlorophenylsulfonyl)-1,2,3,4-tetrahydroquinolin-2-yl)methoxy)ethanone] | 79% | 60% |
| CN(C)C1(c2ccccc2)CCN(C(=O)COCC2CCc3ccccc3N2S(=O)(=O)c2ccc(Cl)c(Cl)c2)CC1 (stereo not drawn) [Compound 109, 2-((1-(3,4-dichlorophenylsulfonyl)-1,2,3,4-tetrahydroquinolin-2-yl)methoxy)-1-(4-(dimethylamino)-4-phenylpiperidin-1-yl)ethanone] | 78% | 80% |
| COc1cc(C)c(S(=O)(=O)N(C)CCOCC(=O)N2CCC(c3cccc(F)c3)(N3CCN(C)CC3)CC2)c(C)c1C [Compound 224, N-(2-(2-(4-(3-Fluorophenyl)-4-(4-methylpiperazin-1-yl)piperidin-1-yl)-2-oxoethoxy)ethyl)-4-methoxy-N,2,3,6-tetramethylbenzenesulfonamide] | 100% |  |
| COc1cc(C)c(S(=O)(=O)N2c3ccccc3CCC2COCC(=O)N2CCC(c3cccc(F)c3)(N3CCN(C)CC3)CC2)c(C)c1 (stereo not drawn) [Compound 220, 1-(4-(3-Fluorophenyl)-4-(4-methylpiperazin-1-yl)piperidin-1-yl)-2-((1-(4-methoxy-2,6-dimethylphenylsulfonyl)-1,2,3,4-tetrahydroquinolin-2-yl)methoxy)ethanone] | 97% |  |

From patent US20090253669A1, “Substituted Sulfonamide Compounds” (GRUENENTHAL GmbH, priority 2008, published 2009)
